The record followed here is the supplement of paper PMC12076712.

Common to all, as to assay: pIC50, kinobeads binding competition
One experiment concerns the target T1, UniProt O95382.
T1 sequence (whole entry): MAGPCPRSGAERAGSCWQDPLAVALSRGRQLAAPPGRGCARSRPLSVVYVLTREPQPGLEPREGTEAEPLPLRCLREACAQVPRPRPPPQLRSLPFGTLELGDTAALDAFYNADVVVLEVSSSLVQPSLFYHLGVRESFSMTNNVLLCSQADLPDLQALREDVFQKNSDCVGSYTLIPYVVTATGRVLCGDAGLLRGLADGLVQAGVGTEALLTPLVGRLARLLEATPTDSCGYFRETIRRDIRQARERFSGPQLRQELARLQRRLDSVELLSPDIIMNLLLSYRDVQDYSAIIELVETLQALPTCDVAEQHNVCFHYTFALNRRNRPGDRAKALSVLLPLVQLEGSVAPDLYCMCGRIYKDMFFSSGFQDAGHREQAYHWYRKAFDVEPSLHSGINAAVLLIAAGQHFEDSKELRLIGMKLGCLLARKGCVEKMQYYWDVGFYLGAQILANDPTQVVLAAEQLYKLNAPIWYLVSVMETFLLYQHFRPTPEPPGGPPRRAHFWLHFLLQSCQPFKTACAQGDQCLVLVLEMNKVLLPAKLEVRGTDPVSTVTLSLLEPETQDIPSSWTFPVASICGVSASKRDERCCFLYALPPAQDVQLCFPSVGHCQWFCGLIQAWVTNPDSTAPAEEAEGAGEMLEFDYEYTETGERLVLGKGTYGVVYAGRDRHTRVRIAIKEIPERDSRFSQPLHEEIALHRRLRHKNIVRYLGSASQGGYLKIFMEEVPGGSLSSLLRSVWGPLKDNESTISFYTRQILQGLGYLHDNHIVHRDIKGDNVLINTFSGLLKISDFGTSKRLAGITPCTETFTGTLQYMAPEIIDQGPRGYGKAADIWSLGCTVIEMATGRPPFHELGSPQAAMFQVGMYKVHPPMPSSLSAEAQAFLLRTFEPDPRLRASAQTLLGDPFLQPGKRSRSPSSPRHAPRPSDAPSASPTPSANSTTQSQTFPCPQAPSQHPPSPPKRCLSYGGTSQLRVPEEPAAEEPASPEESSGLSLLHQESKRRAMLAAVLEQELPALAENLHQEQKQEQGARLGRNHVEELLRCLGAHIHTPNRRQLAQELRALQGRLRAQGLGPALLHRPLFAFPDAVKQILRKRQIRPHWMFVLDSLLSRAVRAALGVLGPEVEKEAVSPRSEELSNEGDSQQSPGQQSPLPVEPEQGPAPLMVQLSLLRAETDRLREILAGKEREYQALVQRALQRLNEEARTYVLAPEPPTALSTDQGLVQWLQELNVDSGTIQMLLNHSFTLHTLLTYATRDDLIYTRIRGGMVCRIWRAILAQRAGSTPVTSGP
The conditions noted are these: cell material: Lysate mix. Put shortly: (§1)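 Fold changes relative to vehicle, from biological duplicates, were fitted with logistic dose-response models in the R drc package to give pIC50. These fold changes came from TMT10 LC-MS/MS quantification of digested Kinobeads-bound proteins. Compound was applied at nine concentrations (top 30 μM) either to live Jurkat cells in 1:4 steps for 60 min at 37 °C before lysis, or to Jurkat lysate or a 1:1:1:1 HEK293/K-562/HepG2/placenta lysate mix in 1:5 steps for 60 min at 4 °C.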

The target in another experiment is BMPR1B (UniProt O00238). The settings on record: cell material: Lysate mix. Put shortly: as §1
Sequence of BMPR1B (O00238 whole entry): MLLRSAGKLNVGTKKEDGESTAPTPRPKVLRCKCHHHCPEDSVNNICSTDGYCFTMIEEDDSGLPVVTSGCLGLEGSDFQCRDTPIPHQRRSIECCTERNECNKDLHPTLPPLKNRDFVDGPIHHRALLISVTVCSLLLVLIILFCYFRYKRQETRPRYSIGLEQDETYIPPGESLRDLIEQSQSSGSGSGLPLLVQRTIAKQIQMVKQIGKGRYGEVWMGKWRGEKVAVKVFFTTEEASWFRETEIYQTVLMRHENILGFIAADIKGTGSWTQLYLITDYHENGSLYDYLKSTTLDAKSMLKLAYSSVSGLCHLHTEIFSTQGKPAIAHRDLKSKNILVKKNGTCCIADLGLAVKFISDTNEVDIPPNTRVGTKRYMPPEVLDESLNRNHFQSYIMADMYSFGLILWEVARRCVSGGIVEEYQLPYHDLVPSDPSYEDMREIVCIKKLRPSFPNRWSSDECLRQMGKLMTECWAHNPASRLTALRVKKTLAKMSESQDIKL
A further experiment deals with T2, UniProt Q8TF76.
T2 sequence (whole entry): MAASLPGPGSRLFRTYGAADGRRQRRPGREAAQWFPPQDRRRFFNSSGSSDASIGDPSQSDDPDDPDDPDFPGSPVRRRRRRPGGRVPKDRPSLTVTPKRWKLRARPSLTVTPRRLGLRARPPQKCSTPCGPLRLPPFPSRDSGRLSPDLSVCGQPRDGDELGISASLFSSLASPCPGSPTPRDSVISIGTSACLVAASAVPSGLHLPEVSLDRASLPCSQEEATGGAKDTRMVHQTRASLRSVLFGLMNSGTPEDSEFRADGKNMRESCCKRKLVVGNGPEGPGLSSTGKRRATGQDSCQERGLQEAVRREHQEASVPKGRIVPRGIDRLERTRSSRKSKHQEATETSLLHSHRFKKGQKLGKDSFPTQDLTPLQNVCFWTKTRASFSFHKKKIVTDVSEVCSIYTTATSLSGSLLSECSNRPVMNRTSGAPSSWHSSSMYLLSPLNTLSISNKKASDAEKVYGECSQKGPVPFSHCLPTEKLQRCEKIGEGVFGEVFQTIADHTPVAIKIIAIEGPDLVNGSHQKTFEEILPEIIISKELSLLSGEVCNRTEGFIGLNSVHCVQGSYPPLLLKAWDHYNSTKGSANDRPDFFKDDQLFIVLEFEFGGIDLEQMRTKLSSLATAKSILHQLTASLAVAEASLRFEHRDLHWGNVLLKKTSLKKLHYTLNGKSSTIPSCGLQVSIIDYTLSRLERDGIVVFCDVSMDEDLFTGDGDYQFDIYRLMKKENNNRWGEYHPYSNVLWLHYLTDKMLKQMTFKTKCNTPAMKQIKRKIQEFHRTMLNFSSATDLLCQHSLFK
Put shortly: as §1

In a further experiment the target is T3, PKMYT1 (UniProt Q99640).
T3 sequence (whole entry): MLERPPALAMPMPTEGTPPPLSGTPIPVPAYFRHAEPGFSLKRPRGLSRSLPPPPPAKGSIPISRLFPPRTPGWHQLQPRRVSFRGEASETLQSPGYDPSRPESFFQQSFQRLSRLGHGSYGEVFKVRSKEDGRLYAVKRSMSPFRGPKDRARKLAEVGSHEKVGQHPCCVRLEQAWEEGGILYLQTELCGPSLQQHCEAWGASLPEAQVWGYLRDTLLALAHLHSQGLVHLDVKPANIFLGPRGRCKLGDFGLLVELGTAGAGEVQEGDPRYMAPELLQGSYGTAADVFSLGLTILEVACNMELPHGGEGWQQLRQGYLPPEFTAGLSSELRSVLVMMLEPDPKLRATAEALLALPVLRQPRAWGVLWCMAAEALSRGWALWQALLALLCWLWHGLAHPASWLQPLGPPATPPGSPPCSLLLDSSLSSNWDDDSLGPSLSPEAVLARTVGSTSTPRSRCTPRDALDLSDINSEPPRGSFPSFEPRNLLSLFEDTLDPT
Put shortly:
as §1

In the next experiment the target is UniProt O96017. Put shortly:
as §1

A further experiment addresses MARK2 (UniProt Q7KZI7). Put shortly:
as §1

Another experiment deals with CDK8 (UniProt P49336). Put shortly:
as §1

For orientation: pIC50 means −log10 of the IC50, conventionally taken in molar units. A low value points to a high IC50.

Molecules are shown by their SMILES. Some results are limits rather than exact numbers.

Sequence of UniProt O96017 (O96017 whole entry): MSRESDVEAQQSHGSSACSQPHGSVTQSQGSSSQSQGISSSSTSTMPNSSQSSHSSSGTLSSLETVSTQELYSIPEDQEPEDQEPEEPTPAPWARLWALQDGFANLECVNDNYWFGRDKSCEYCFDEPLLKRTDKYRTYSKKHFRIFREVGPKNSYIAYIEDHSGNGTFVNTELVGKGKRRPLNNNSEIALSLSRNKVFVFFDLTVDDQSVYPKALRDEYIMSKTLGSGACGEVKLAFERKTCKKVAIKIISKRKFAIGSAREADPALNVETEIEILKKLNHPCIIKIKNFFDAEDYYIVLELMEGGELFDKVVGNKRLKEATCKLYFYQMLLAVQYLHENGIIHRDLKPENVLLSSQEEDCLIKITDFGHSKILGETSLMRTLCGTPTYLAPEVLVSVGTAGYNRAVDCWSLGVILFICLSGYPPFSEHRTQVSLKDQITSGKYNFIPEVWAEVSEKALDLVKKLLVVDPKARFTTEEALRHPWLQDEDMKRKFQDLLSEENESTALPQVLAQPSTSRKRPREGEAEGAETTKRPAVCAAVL
Sequence of CDK8 (P49336 whole entry): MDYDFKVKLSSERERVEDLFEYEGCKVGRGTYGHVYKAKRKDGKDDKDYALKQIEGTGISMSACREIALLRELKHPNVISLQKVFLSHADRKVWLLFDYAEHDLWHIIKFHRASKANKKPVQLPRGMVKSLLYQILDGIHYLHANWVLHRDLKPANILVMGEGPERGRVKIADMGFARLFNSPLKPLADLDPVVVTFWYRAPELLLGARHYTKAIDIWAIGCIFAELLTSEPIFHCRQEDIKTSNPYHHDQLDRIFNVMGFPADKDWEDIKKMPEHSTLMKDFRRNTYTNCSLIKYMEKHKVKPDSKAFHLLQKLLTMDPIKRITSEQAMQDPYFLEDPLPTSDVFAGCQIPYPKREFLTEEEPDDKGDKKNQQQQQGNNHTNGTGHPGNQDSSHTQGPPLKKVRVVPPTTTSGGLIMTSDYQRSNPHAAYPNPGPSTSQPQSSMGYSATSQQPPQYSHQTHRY
Sequence of MARK2 (Q7KZI7 whole entry): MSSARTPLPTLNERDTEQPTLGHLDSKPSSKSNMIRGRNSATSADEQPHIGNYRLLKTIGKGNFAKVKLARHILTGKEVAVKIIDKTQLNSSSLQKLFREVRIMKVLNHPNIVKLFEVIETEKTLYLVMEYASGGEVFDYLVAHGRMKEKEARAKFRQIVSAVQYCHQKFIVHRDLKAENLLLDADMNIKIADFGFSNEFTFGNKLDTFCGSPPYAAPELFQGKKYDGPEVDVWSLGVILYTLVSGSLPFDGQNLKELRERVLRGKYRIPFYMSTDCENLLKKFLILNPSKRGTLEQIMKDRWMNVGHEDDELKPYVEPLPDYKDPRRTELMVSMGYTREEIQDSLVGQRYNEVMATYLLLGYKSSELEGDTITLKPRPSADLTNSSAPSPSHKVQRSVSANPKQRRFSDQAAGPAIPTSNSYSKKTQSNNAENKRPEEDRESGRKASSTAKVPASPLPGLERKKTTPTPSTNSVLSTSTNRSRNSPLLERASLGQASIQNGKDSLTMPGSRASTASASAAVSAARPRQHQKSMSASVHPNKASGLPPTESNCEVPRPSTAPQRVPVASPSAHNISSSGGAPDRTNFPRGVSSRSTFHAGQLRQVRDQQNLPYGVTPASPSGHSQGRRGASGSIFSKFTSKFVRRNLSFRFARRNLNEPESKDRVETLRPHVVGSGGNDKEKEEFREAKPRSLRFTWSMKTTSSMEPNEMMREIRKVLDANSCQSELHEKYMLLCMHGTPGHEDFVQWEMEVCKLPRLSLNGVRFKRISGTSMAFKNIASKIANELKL

In the case of `O=C(NCCNC(=O)c1cc(Nc2cc(C3CC3)[nH]n2)nc(N2CCN(Cc3ccc(S(=O)(=O)F)cc3)CC2)n1)OC1CC/C=C/CCC1` (stereo unspecified), the pIC50 at UniProt O95382, on BMPR1B, at UniProt Q8TF76 (cell material: Jurkat cells), on UniProt Q8TF76 (cell material: Jurkat lysate), on UniProt Q8TF76 (cell material: Lysate mix) and on PKMYT1 (cell material: Jurkat lysate) was under 4.52 throughout. Moreover, the pIC50 at PKMYT1 (cell material: Lysate mix) is under 4.52; at UniProt O96017 (cell material: Jurkat cells) it was 5.78; at UniProt O96017 (cell material: Jurkat lysate), 4.92; on UniProt O96017 (cell material: Lysate mix) it was 4.71; on MARK2 (cell material: Jurkat cells), 5.04; on MARK2 (cell material: Jurkat lysate) it was under 4.52. Further, the pIC50 on MARK2 (cell material: Lysate mix), on CDK8 (cell material: Jurkat cells), at CDK8 (cell material: Jurkat lysate) and on CDK8 (cell material: Lysate mix) was under 4.52 each time.

Regarding `Cc1cc(Nc2cc(C(=O)NCCNC(=O)OC3CC/C=C/CCC3)nc(N3CCN(Cc4ccc(S(=O)(=O)F)cc4)CC3)n2)n[nH]1` (stereo unspecified), the pIC50 at UniProt O95382 was under 4.52; at BMPR1B, under 4.52; at UniProt Q8TF76 (cell material: Lysate mix), under 4.52; at PKMYT1 (cell material: Lysate mix), under 4.52; at UniProt O96017 (cell material: Lysate mix), 5.23; on MARK2 (cell material: Lysate mix), under 4.52. The compound also showed a pIC50 at CDK8 (cell material: Lysate mix) of under 4.52.

On to `CCNC(=O)c1cc(Nc2cc(C)[nH]n2)nc(N2CCN(Cc3ccc(S(=O)(=O)F)cc3)CC2)n1`, for which the pIC50 at UniProt O95382 was 4.66; at BMPR1B, under 4.52; on UniProt Q8TF76 (cell material: Lysate mix), under 4.52; on PKMYT1 (cell material: Lysate mix) it was under 4.52; on UniProt O96017 (cell material: Lysate mix), 4.92; at MARK2 (cell material: Lysate mix), under 4.52. Also, the pIC50 at CDK8 (cell material: Lysate mix) is under 4.52.

As for `C#CCNC(=O)c1cc(Nc2cc(C3CC3)[nH]n2)nc(N2CCN(Cc3ccc(S(=O)(=O)F)cc3)CC2)n1`, the negative logarithm of the IC50 (pIC50) is under 4.52 at UniProt O95382; 4.78 at BMPR1B; 5.26 on UniProt Q8TF76 (cell material: Jurkat cells); under 4.52 at UniProt Q8TF76 (cell material: Jurkat lysate); under 4.52 at UniProt Q8TF76 (cell material: Lysate mix); 5.67 on PKMYT1 (cell material: Jurkat cells). The pIC50 was under 4.52 at PKMYT1 (cell material: Jurkat lysate); under 4.52 on PKMYT1 (cell material: Lysate mix); 5.76 on UniProt O96017 (cell material: Jurkat cells); 4.88 on UniProt O96017 (cell material: Jurkat lysate); 4.92 at UniProt O96017 (cell material: Lysate mix); 5.92 on MARK2 (cell material: Jurkat cells). The pIC50 on MARK2 (cell material: Jurkat lysate), on MARK2 (cell material: Lysate mix), on CDK8 (cell material: Jurkat cells), at CDK8 (cell material: Jurkat lysate) and on CDK8 (cell material: Lysate mix) was under 4.52 in each case.

For the compound `C#CCNC(=O)c1cc(Nc2cc(C)[nH]n2)nc(N2CCN(Cc3ccc(S(=O)(=O)F)cc3)CC2)n1`, the pIC50 at UniProt O95382 was 4.63; on BMPR1B it was under 4.52; at UniProt Q8TF76 (cell material: Lysate mix), under 4.52; on PKMYT1 (cell material: Lysate mix), under 4.52; on UniProt O96017 (cell material: Lysate mix) it was 4.98; on MARK2 (cell material: Lysate mix), under 4.52. The compound also had a negative logarithm of the IC50 (pIC50) at CDK8 (cell material: Lysate mix) of under 4.52.

Regarding `CCNC(=O)c1cc(Nc2cc(C3CC3)[nH]n2)nc(N2CCN(Cc3ccc(S(=O)(=O)F)cc3)CC2)n1`, the pIC50 on UniProt O95382 is under 4.52; at BMPR1B, 5.08; at UniProt Q8TF76 (cell material: Lysate mix), under 4.52; on PKMYT1 (cell material: Lysate mix) it was under 4.52; at UniProt O96017 (cell material: Lysate mix), 4.75; on MARK2 (cell material: Lysate mix), under 4.52. Moreover, on CDK8 (cell material: Lysate mix), the pIC50 is under 4.52.
